Here are results for 2 molecules from paper PMC7018514 (eLife, 2020).

Test [1] has as its target T1, human IMPDH2 (Homo sapiens, UniProt P12268).
T1 construct: full-length hIMPDH2 (SUMO tag removed)
Briefly: cryo-EM structures ([…] Å fully compressed filament segment; […] Å free octamer), plus GTP inhibition kinetics of purified enzyme. It is filed as biochemical.

Test [2] addresses T2, human IMPDH2 (Homo sapiens, UniProt P12268, Y12A).
T2 construct: full-length hIMPDH2, non-assembling mutant
Briefly: NADH absorbance ([…] nm) activity assay with GTP dose-response; […] inhibited at […] GTP. In kind it is biochemical.

Test [3] deals with T1, human IMPDH2. Briefly: cryo-EM structure ([…] Å filament assembly interface); NAD+ saturation kinetics. It is filed as binding.

The structures appear in SMILES notation.

T1 sequence (P12268 2-514): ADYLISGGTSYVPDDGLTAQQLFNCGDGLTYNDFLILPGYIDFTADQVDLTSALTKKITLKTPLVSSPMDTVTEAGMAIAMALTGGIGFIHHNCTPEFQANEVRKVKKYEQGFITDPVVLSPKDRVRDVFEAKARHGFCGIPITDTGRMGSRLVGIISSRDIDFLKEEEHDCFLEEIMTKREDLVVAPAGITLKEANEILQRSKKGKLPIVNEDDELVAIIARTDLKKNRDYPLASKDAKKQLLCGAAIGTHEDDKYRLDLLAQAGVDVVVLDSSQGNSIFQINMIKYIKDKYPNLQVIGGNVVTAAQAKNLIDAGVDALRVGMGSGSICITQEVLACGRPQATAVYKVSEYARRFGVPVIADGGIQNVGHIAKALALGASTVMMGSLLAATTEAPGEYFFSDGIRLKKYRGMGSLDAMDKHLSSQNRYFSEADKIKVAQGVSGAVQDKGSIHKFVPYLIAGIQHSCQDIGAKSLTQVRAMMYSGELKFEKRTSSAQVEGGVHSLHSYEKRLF
T2 sequence (P12268 2-514 Y12A): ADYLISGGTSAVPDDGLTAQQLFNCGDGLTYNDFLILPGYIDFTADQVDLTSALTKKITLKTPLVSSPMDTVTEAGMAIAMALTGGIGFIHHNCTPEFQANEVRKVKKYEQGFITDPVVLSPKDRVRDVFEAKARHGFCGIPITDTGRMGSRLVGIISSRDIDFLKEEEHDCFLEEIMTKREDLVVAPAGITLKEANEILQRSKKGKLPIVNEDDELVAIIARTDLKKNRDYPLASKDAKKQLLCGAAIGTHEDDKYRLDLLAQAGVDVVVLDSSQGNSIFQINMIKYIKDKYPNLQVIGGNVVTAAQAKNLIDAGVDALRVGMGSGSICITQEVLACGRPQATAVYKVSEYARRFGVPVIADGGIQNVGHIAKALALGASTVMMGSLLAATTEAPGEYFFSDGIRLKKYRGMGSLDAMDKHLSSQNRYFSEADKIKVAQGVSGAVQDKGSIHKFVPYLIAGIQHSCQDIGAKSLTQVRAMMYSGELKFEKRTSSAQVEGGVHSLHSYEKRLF

`Nc1nc2c(ncn2[C@@H]2O[C@H](COP(=O)(O)OP(=O)(O)OP(=O)(O)O)[C@@H](O)[C@H]2O)c(=O)[nH]1` [GTP]: the figures for the IC50 in test [1] and in test [2] were greater than 2 mM and less than 2 mM, respectively.
Regarding `NC(=O)c1ccc[n+]([C@@H]2O[C@H](COP(=O)([O-])OP(=O)(O)OC[C@H]3O[C@@H](n4cnc5c(N)ncnc54)[C@H](O)[C@@H]3O)[C@@H](O)[C@H]2O)c1` [NAD+], the “cryo-EM structure (3.0 Å filament assembly interface); NAD+ saturation kinetics” value in test [3] was “There is strong density in the both the IMP and NAD^+ binding sites”.
